tested on: Staphylococcus aureus 1199 B NorA+; format: cell-based; settings: combination with ciprofloxacin, broth microdilution checkerboard, 35° C. 20 hours; FIC index ≦0.5 synergistic, 0.5–2.0 additive, >2.0 antagonistic
Text: Testing method for inhibition of the efflux pump of Staphylococcus aureus 1199B NorA^+
[…]. Victor Lorian, Md., Fourth edition 1996, pp 333–338).
In short, the assay involves broth microdilution method performed as recommended by the National Committee for Clinical Laboratory Standards (NCCLS) 1997 (Methods for Dilution of Antimicrobial Susceptibility Tests for Bacteria that Grow Aerobically, Fourth edition; Approved Standard, NCCLS document M7-A4, vol. 17, No. 2). The test organism used for the assay is Staphylococcus aureus 1199 B NorA^+.
[…]. Stock solutions of the efflux pump inhibitors tested are prepared in dimethyl sulfoxide (DMSO) at a final concentration of 5 mg/ml. Stock solutions are further diluted in Mueller Hinton Broth as per the need of the assay. Ciprofloxacin is dissolved in water.
The checkerboard assay is performed in microtiter plates. […] The efflux pump inhibitor is diluted in the Y-axis, each row containing an equal concentration of efflux pump inhibitor. The result of these manipulations is that each well of the microtiter plate contains a unique combination of concentrations of the two agents. Bacterial inoculum is added at 5×10^5 CFU/ml. Microtiter plates are incubated at 35° C. for 20 hours. Reading is done by visibly noting turbidity and confirmed using a microtiter plate reader (Molecular Devices). The FIC index is calculated as
(A) is the concentration of the experimental efflux pump inhibitor in the well that is the lowest inhibitory concentration in the Y-axis. (MICA) is the MIC of Staphylococcus aureus to experimental efflux pump inhibitor alone. FICA is the fractional inhibitory concentration of an experimental efflux pump inhibitor. […] (Antimicrobial Combination In Antibiotics in Laboratory Medicine, Ed. Victor Lorian, Md., Fourth edition 1996, pp 333–338).

Compared with `Cc1c(F)c(N2CCC(Nc3c(F)c(N)c4c(=O)c(C(=O)O)cn(C5CC5)c4c3F)C2)cc2c1c(=O)c(C(=O)O)cn2C1CC1` (stereo not drawn) [Bis compound 7, N-1-{7-(1-cyclopropyl-6-fluoro-5-methyl-1,4-dihydro-4-oxo-quinolone-3-carboxylic acid)}-N-3-amino{7-(1-cyclopropyl-6,8-difluoro-5-amino-1,4-dihydro-4-oxo-quinoline-3-carboxylic acid)}-pyrrolidine], `O=C(O)c1cn(-c2ccc(F)cc2F)c2nc(N3CCN(c4cc5c(cc4F)c(=O)c(C(=O)O)cn5C4CC4)CC3)c(F)cc2c1=O` [Bis compound 8, N-1-{7-(1-(2,4-difluorophenyl)-6-fluoro-1,4-dihydro-4-oxo-1,8-naphthyridine-3-carboxylic acid)}-N-4-{7-(1-cyclopropyl-6-fluoro-1,4-dihydro-4-oxo-quinoline-3-carboxylic acid)}-piperazine] is lower in “FIC INDEX” value: 0.304 for the first, 0.192 for the second.

Going from `CC1CN(c2c(F)c(N)c3c(=O)c(C(=O)O)cn(-c4ccccc4C(F)(F)F)c3c2F)CC(C)N1` (stereo not drawn) [Example 42 (NorA), 5-Amino-1-(2′-trifluoromethylphenyl)-6,8-difluoro-1,4-dihydro-7-(3′,5′-dimethylpiperizine-1-yl)-4-oxo-quinoline-3-carboxylic acid] to `COc1c(N2CC(C)C(O)C(C)C2)c(F)cc2c(=O)c(C(=O)O)cn(C3CC3)c12` (stereo not drawn) [Example 22 (NorA), 1-Cyclopropyl-6-fluoro-8-methoxy-1,4-dihydro-7-(4′-hydroxy-3′,5′-dimethylpiperidin-1-yl)-4-oxo-quinoline-3-carboxylic acid], the “FIC INDEX” value rises from 0.314 to 0.370.

First: CC1(C)CN(c2c(F)c(N)c3c(=O)c(C(=O)O)cn(-c4ccc(F)cc4F)c3c2F)CCN1 [Example 47 (NorA), 5-Amino-1-(2′,4′-difluorophenyl)-6,8-difluoro-1,4-dihydro-7-(3′,3′-dimethylpiperazin-1-yl)-4-oxo-quinoline-3-carboxylic acid]
Second: C[C@H]1CCc2c(N3CCC(C(N)=O)CC3)c(F)cc3c(=O)c(C(=O)O)cn1c23 [Example 53 (NorA), (S)-(−)-9-Fluoro-6,7-dihydro-8-(4′-carboxamidopineridin-1-yl)-5-methyl-1-oxo-1H,5H-benzo[i,j]quinolizine-2-carboxylic acid]
The “FIC INDEX” value of the first is higher: 0.375 for the first, 0.192 for the second.

First: Nc1c(F)c(N2CCN(c3nc4c(cc3F)c(=O)c(C(=O)O)cn4C3CC3)CC2)c(F)c2c1c(=O)c(C(=O)O)cn2C1CC1 [Bis compound 4, N-1-{7-(1-cyclopropyl-6-fluoro-1,4-dihydro-4-oxo-1,8-naphthyridine-3-carboxylic acid)}-N-4-{7-(1-cyclopropyl-6,8-difluoro-5-amino-1,4-dihydro-4-oxo-quinoline-3-carboxylic acid)}-piperazine]
Second: COc1c(N2CCC(O)C(CC(C)C)C2)c(F)cc2c(=O)c(C(=O)O)cn(C3CC3)c12 (stereo not drawn) [Example 20 (NorA), 1-Cyclopropyl-6-fluoro-8-methoxy-1,4-dihydro-7-(4′-hydroxy-3′-isobutylpiperidin-1-yl)-4-oxo-quinoline-3-carboxylic acid]
The “FIC INDEX” value of the first is higher: 0.282 for the first, 0.248 for the second.

Compared with `CC1CC(C)CN(c2cc3c(cc2F)c(=O)c(C(=O)O)cn3C2CC2)C1` (stereo not drawn) [Example 13 (NorA), 1-Cyclopropyl-6-fluoro-1,4-dihydro-7-(3′,5′-dimethylpiperidin-1-yl)-4-oxo-quinoline-3-carboxylic acid], `CC1(C)CN(c2c(F)c(N)c3c(=O)c(C(=O)O)cn(C4CC4)c3c2F)CCC1O` (stereo not drawn) [Example 31 (NorA), 5-Amino-1-cyclopropyl-6,8-difluoro-1,4-dihydro-7-(4′-hydroxy-3′,3′-dimethyl-piperidin-1-yl)-4-oxo-quinoline-3-carboxylic acid] is lower in “FIC INDEX” value: 0.314 for the first, 0.304 for the second.

`CC(=O)NC1CC(C)N(c2cc3c(cc2F)c(=O)c(C(=O)O)cn3C2CC2)C1` (stereo not drawn) [9 (NorA), 1-Cyclopropyl-6-fluoro-1,4-dihydro-7-(3′-acetamido-5′-methylpyrrolidin-1-yl)-4-oxo-quinoline-3-carboxylic acid] and `COc1c(N2CCNC(C)C2)c(F)cc2c(=O)c(C(=O)O)cn(C3CC3)c12` (stereo not drawn) [Example 23 (NorA), 1-Cyclopropyl-6-fluoro-8-methoxy-1,4-dihydro-7-(3′-methylpiperazin-1-yl)-4-oxo-quinoline-3-carboxylic acid] are the same in “FIC INDEX” value: 0.314 for the first, 0.314 for the second.

Going from `CCOC(=O)c1cn(-c2ccc(F)cc2F)c2nc(NC3C4CN(Cc5ccccc5)CC43)c(F)cc2c1=O` (stereo not drawn) [Example 51 (NorA), Ethyl-1-(2′,4′-difluorophenyl)-6-fluoro-1,4-dihydro-7-{[1∝,5∝,6∝]-3-N-benzyl-3-azabicyclo[3.1.01]hex-6-yl-amino}-4-oxo-1,8-naphthyridine-3-carboxylate] to “(S)-(−)-9-Fluoro-6,7-dihydro-8-(4′-hydroxypiperidin-1-yl)-5-methyl-1-oxo-1H,5H-benzo[i,j]quinolizine-2-carboxylic acid L-aryinine salt [Example 54 (NorA)]”, the “FIC INDEX” value rises from 0.185 to 0.314.

First: Cc1c(F)c(N2CCC(Nc3nc4c(cc3F)c(=O)c(C(=O)O)cn4-c3ccc(F)cc3F)C2)cc2c1c(=O)c(C(=O)O)cn2C1CC1 (stereo not drawn) [Bis compound 5, N-1-{7-(1-cyclopropyl-6-fluoro-5-methyl-1,4-dihydro-4-oxo-quinolone-3-carboxylic acid)}-N-3-amino-{7-(1-(2,4-difluorophenyl)-6-fluoro-1,4-dihydro-4-oxo-1,8-naphthyridine-3-carboxylic acid)}-pyrrolidine]
Second: CCOC(=O)COC(=O)c1cn2c3c(c(N4CCC(O)CC4)c(F)cc3c1=O)CC[C@H]2C [Example 57 (NorA), Ethoxy carbonylmethyl (R)-(+)-9-fluoro-6,7-dihydro-8-(4′-hydroxypiperidin-1-yl)-5-methyl-1-oxo-1H,5H-benzo[i,j]quinolizine-2-carboyxlate]
The “FIC INDEX” value of the first is lower: 0.320 for the first, 0.400 for the second.

Going from `Nc1c(F)c(N2CCC(CNC3CCNCC3)CC2)c(F)c2c1c(=O)c(C(=O)O)cn2C1CC1` [Example 33 (NorA)] to `C[C@H](NC(=O)OC(C)(C)C)C(=O)N[C@@H](C)C(=O)NC1CCN(c2c(F)c(N)c3c(=O)c(C(=O)O)cn(C4CC4)c3c2F)CC1` [Example 29 (NorA), 5-Amino-1-cyclopropyl-6,8-difluoro-1,4-dihydro-7-{4′-(-t-butoxycarbonylamino-L-Ala-L-Ala)aminopiperidin-1-yl}-4-oxo-quinoline-3-carboxylic acid], the “FIC INDEX” value rises from 0.314 to 0.320.

`Cc1c(F)c(N2CCNC(C)(C)C2)cc2c1c(=O)c(C(=O)O)cn2C1CC1` [Example 18 (NorA), 1-Cyclopropyl-6-fluoro-1,4-dihydro-5-methyl-7-(3′,3′-dimethylpiperazin-1-yl)-4-oxo-quinoline-3-carboxylic acid] and `CC1CC(O)CN1c1c(F)c(N)c2c(=O)c(C(=O)O)cn(-c3ccc(F)cc3F)c2c1F` (stereo not drawn) [Example 46 (NorA), 5-Amino-1-(2′,4′-difluorophenyl)-6,8-difluoro-1,4-dihydro-7-(3′-hydroxy-5′-methylpyrrolidin-1-yl)-4-oxo-quinoline-3-carboxylic acid] are the same in “FIC INDEX” value: 0.314 for the first, 0.314 for the second.

`CCOC(=O)NC1CCN(c2nc3c(cc2F)c(=O)c(C(=O)O)cn3C2CC2)C1` (stereo not drawn) [Example 48 (NorA), 1-Cyclopropyl-6-fluoro-1,4-dihydro-7-{(3′-aminoethoxycarbonyl)pyrrolidin-3-yl}-4-oxo-naphthyridine-3-carboxylic acid] was tested, and the “FIC INDEX” value was “(3-ethoxycarbonylamino)pyrrolidin-3-yl 0.314”.

From US7098219B2, “Inhibitors of cellular efflux pumps of microbes” (Wockhart Limited, priority 2000, dated 2006)
